ChEMBL document CHEMBL1147307, “Cytotoxic macrolides from a cultured marine dinoflagellate of the genus Amphidinium” (J Nat Prod, 1989)
Values after ≈ are worked out from the molar mass of the structure shown.

System: L1210
Test: Cytotoxicity against mouse L1210 cells
Format: functional, cell-based

SMILES: C=C1/C=C(\C)C(C)(O)CC(O)CC(=O)C(O)C(O)C(C)CC(C)OC(=O)/C(C)=C/CC/C=C/C(OC)C(O)CC(C)C1 (stereo unspecified)
- IC50: 0.081 µg/mL (≈ 0.136 µM)
